From publication PMC2096561 (2004) come the findings set out here.

The target in the assay is GPR80 (GPR99, proposed P2Y15) (Homo sapiens, UniProt Q96P68). Put plainly: [3H]inositol phosphate accumulation in GPR80-expressing CHO and HEK293 cells. The assay is classed as cell-based.
Sequence of GPR80 (GPR99, proposed P2Y15) (Q96P68 whole entry): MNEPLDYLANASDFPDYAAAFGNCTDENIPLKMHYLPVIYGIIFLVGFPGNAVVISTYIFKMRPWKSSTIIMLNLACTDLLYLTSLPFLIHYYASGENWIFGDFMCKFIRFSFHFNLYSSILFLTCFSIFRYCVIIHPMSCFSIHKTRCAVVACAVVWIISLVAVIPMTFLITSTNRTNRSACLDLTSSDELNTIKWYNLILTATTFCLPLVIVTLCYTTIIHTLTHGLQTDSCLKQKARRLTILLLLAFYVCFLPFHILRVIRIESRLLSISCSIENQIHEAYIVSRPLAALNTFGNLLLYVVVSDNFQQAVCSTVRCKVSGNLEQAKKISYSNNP

Take `O=C(O)CCC(=O)C(=O)O` [α-ketoglutarate]: the 50% effective concentration (EC50) worked out at 140 ± 10 µM.
